Assay results published in US7786141B2 (Vertex Pharmaceuticals Incorporated, priority 2004, dated 2010).
Read-outs that look alike come from different tables or passages of the source.

What was measured:
M1 muscarinic receptor = target: T1, M1 muscarinic receptor (Homo sapiens, UniProt P11229); assay: Functional mobilization of intracellular calcium (FLIPR) in M1-CHO cells; format: cell-based
T1 construct: expressed in transfected cells; host or cells: CHO (M1-CHO)
T1 sequence (P11229 1-460): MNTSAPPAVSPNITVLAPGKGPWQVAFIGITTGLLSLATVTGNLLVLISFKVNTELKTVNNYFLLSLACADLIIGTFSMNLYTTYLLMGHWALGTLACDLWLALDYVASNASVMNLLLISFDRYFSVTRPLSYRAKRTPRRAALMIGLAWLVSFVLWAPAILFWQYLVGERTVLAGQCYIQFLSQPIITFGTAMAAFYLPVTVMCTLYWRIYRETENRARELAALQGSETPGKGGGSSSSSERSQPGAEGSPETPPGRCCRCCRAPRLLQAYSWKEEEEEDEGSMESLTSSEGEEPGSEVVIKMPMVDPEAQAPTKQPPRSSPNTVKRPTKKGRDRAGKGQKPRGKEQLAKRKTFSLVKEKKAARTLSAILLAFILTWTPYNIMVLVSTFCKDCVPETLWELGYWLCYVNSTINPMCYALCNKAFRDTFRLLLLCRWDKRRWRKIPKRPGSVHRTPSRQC
Outline: (§1)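 Two modes: direct compound addition for agonism, or 15 min compound pre-incubation (or co-application) before carbachol at EC80 for inhibition. Calcium signal from Fluo-3 AM or Calcium 3 dye in CHO cells, 1 mM probenecid, pH 7.4, read 60 sec at 488/540 nm; DMSO 0.5% final.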

M4 muscarinic receptor = target: T2, M4 muscarinic receptor (Homo sapiens, UniProt P08173); assay: Functional mobilization of intracellular calcium (FLIPR) in M4-CHO cells; format: cell-based
T2 construct: expressed in transfected cells; host or cells: CHO (M4-CHO)
T2 sequence (P08173 1-479): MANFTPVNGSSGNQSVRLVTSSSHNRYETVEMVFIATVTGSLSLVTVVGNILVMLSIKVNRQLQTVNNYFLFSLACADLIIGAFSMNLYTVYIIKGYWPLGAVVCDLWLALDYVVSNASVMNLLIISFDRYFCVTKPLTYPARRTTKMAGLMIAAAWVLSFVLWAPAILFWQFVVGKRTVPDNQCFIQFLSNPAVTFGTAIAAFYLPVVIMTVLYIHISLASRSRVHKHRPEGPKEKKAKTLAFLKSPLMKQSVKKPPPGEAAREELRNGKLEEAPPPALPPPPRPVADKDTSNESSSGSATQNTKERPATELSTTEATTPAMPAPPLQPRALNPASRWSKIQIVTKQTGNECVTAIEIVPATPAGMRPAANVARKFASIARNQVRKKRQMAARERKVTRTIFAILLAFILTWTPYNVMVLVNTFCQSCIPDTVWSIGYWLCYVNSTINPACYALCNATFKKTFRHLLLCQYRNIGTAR
Outline: as §1

[1] = M1 receptor, calcium mobilization
[2] = M1 receptor, calcium mobilization, read-out: M1 Efficacy
[3] = M4 receptor, calcium mobilization
[4] = M4 receptor, calcium mobilization, read-out: M4 Efficacy
[5] = 100% efficacy is the maximum response obtained with the Carbachol control, Table 5
[6] = Table 4, 100% efficacy is the maximum response obtained with the Carbachol control
[7] = Table 4, modulating M1 receptor
[8] = Table 4, modulating M4 receptor
[9] = Table 4, M1 receptor, calcium mobilization (FLIPR)
[10] = Table 4, M4 receptor, calcium mobilization (FLIPR)

Row | Structure (SMILES) | M1 Activity (M1 muscarinic receptor; [1]) | Emax (M1 muscarinic receptor; [2]) | M4 Activity (M4 muscarinic receptor; [3]) | Emax (M4 muscarinic receptor; [4]) | Emax (M1 muscarinic receptor; [6]) | M1 Activity (M1 muscarinic receptor; [7]) | Emax (M4 muscarinic receptor; [6]) | M4 Activity (M4 muscarinic receptor; [8]) | further results
1 | CCOC(=O)N1C2CCC1CC(N1CCC3(CC1)CN(C(=O)C1CCC1)c1ccc(F)cc13)C2 (centres unmarked) [compound 179] | xx (activity was measured to be between 0.1 μM and 1.0 μM) | > 85% | x (activity was measured to be greater than 1.0 μM) | 65 to 85% |  |  |  |  | 
2 | COC(=O)N1CC2(CCN(C3CC4CCC(C3)N4C(=O)OC)CC2)c2cc(F)ccc21 (centres unmarked) [compound 235] | xx (activity was measured to be between 0.1 μM and 1.0 μM) | 65 to 85% | x (activity was measured to be greater than 1.0 μM) | 65 to 85% |  |  |  |  | 
3 | CCOC(=O)N1CCC(N2CCC3(CC2)CN(C(C)=O)c2ccc(-c4ccncc4)cc23)CC1 [compound 105] | xx (activity was measured to be between 0.1 μM and 1.0 μM) | < 65% | x (activity was measured to be greater than 1.0 μM) | < 65% |  |  |  |  | 
4 | CN(C)C(=O)N1CC2(CCN(C3CCN(c4ccccn4)CC3)CC2)c2cc(F)ccc21 [compound 1039] |  |  |  |  |  |  |  |  | Emax (M1 muscarinic receptor; [5]): 25 to 100%; EC50 (M1 muscarinic receptor; CHO cells expressing M1, calcium mobilization, Table 5): 2 to 10 µM; Emax (M4 muscarinic receptor; [5]): 25 to 100%; EC50 (M4 muscarinic receptor; CHO cells expressing M4, calcium mobilization, Table 5): < 2 µM
5 | CCOC(=O)N1C2CCC1CC(CN1CCC3(CC1)CNc1ccc(C)cc13)C2 (centres unmarked) [compound 332] | x (activity was measured to be greater than 1.0 μM) | < 65% | x (activity was measured to be greater than 1.0 μM) | < 65% |  |  |  |  | 
6 | CC(=O)NC1CCC2(CCN(CCC3CCOCC3)CC2)c2ccccc21 (centres unmarked) [compound 709] |  |  |  |  | 25 to 100% | xxx (activity was measured to be less than 2.0 μM) | < 25% | xxx (activity was measured to be less than 2.0 μM) | 
7 | CC(=O)N[C@@H]1CCC2(CCN([C@@H]3C[C@H]4CC[C@@H]3C4)CC2)c2ccccc21 [compound 506] |  |  |  |  | < 25% | x (activity was measured to be greater than 5.0 μM) | 25 to 100% | xx (activity was measured to be between 2.0 μM and 5.0 μM) | 
8 | CCOC(=O)N1CCC(N2CCC3(CC2)CN(C(=O)N2CCCCC2)c2ccccc23)CC1 [compound 688] |  |  |  |  | 25 to 100% | xxx (activity was measured to be less than 2.0 μM) | 25 to 100% | xxx (activity was measured to be less than 2.0 μM) | 
9 | COCCN1CCC(N2CCC3(CC2)CN(C(C)=O)c2ccc(F)cc23)CC1 [compound 474] |  |  |  |  | < 25% | x (activity was measured to be greater than 5.0 μM) | < 25% | x (activity was measured to be greater than 5.0 μM) | 
10 | CCOC(=O)N1C2CCC1CC(N1CCC3(CC1)CN(C(=O)O[C@@H]1CCOC1)c1ccc(F)cc13)C2 (some centres unmarked) [compound 28] | xxx (activity was measured to be less than 0.1 μM) | > 85% | xx (activity was measured to be between 0.1 μM and 1.0 μM) | 65 to 85% |  |  |  |  | 
11 | CC(CF)OC(=O)N1CCC(N2CCC3(CC2)CN(C(=O)N(C)C)c2ccc(F)cc23)CC1 (centres unmarked) [compound 987] |  |  |  |  | 25 to 100% |  | 25 to 100% |  | M1 Activity (M1 muscarinic receptor; [9]): xxx (activity was measured to be less than 2.0 μM); M4 Activity (M4 muscarinic receptor; [10]): xxx (activity was measured to be less than 2.0 μM)
12 | Fc1ccc2c(c1)C1(CCN(C[C@@H]3C[C@H]4CC[C@H]3O4)CC1)CN2 [compound 429] |  |  |  |  |  |  |  |  | EC50 (M1 muscarinic receptor; M1-CHO cells, calcium mobilization (FLIPR)): 0.1 to 1 µM; Emax (M1 muscarinic receptor; M1-CHO cells, calcium mobilization (FLIPR), read-out: M1 Efficacy): < 65%; EC50 (M4 muscarinic receptor; M4-CHO cells, calcium mobilization (FLIPR)): > 1 µM; Emax (M4 muscarinic receptor; M4-CHO cells, calcium mobilization (FLIPR), read-out: M4 Efficacy): < 65%
13 | CCOC(=O)N1C2CCC1CC(N1CCC3(CC1)CNc1ccc(F)cc13)C2 (centres unmarked) [compound 310] | xx (activity was measured to be between 0.1 μM and 1.0 μM) | < 65% | x (activity was measured to be greater than 1.0 μM) | < 65% |  |  |  |  | 
14 | CCOC(=O)N1C2CCC1CC(N1CCC3(CC1)CN(C(C)=O)c1ccccc13)C2 (centres unmarked) [compound 205] | x (activity was measured to be greater than 1.0 μM) | < 65% | x (activity was measured to be greater than 1.0 μM) | < 65% |  |  |  |  | 
15 | CCOC(=O)N1CCC(N2CCC3(CC2)CN(c2ccc(F)cc2)c2ccc(F)cc23)CC1 [compound 808] |  |  |  |  | 25 to 100% |  | 25 to 100% |  | M1 Activity (M1 muscarinic receptor; [9]): xxx (activity was measured to be less than 2.0 μM); M4 Activity (M4 muscarinic receptor; [10]): xxx (activity was measured to be less than 2.0 μM)
16 | Fc1ccc2c(c1)C1(CCN([C@H]3C[C@@H]4CC[C@@H]3C4)CC1)CO2 [compound 204] | xxx (activity was measured to be less than 0.1 μM) | 65 to 85% | x (activity was measured to be greater than 1.0 μM) | < 65% |  |  |  |  | 
17 | C#CCOC(=O)N1CC[C@H](CN2CCC3(CC2)CN(C(C)=O)c2ccccc23)C1 [compound 493] |  |  |  |  | > 100% | xxx (activity was measured to be less than 2.0 μM) | > 100% | xxx (activity was measured to be less than 2.0 μM) | 
18 | C#CCCOC(=O)N1CCC(N2CCC3(CC2)CN(C(=O)N(C)C)c2ccc(F)cc23)CC1 [compound 127] | xxx (activity was measured to be less than 0.1 μM) | 65 to 85% | xx (activity was measured to be between 0.1 μM and 1.0 μM) | < 65% |  |  |  |  | 
19 | CCOC(=O)N1C2CCC1CC(N1CCC3(CC[C@@H](NC(C)=O)c4ccccc43)CC1)C2 (some centres unmarked) [compound 669] |  |  |  |  | 25 to 100% | xxx (activity was measured to be less than 2.0 μM) | 25 to 100% | xxx (activity was measured to be less than 2.0 μM) | 
20 | Cc1ccc2c(c1)C1(CCN(C3CC4CCC3C4)CC1)CN2C(=O)OC(C)(C)C (centres unmarked) [compound 116] | xxx (activity was measured to be less than 0.1 μM) | 65 to 85% | xx (activity was measured to be between 0.1 μM and 1.0 μM) | < 65% |  |  |  |  | 
21 | CC#CCOC(=O)N1CC[C@H](CN2CCC3(CC2)CN(C(C)=O)c2ccccc23)C1 [compound 637] |  |  |  |  | > 100% | xxx (activity was measured to be less than 2.0 μM) | 25 to 100% | xxx (activity was measured to be less than 2.0 μM) | 
22 | CCOC(=O)N1CCC(CN2CCC3(CC2)COc2ccc(Cl)cc23)CC1 [compound 176] | xx (activity was measured to be between 0.1 μM and 1.0 μM) | > 85% | xx (activity was measured to be between 0.1 μM and 1.0 μM) | 65 to 85% |  |  |  |  | 
23 | C1=C[C@H]2C[C@H]1C[C@@H]2CN1CCC2(CCc3ccccc32)CC1 [compound 263] | xxx (activity was measured to be less than 0.1 μM) | < 65% | xxx (activity was measured to be less than 0.1 μM) | < 65% |  |  |  |  | 
